The source made the active and inactive calls.
Columns and labels:
[1] = biological target: T1, G-protein coupled receptor 35 (Homo sapiens, UniProt Q9HC97); test: GPR35 antagonists blocking zaprinast-driven arrestin recruitment, primary screen, imaging, U2OS, beta-arrestin-GFP, zaprinast agonist (AID 2058); assay type: functional;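 note: antagonist potency meaning inhibition of agonist-induced arrestin redistribution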
[2] = biological target: T1, G-protein coupled receptor 35; test: SAR Analysis for the identification of Selective Antagonists of ERK1/2 Activity in GPR35-Overexpressing U2OS Cells. [Related pubchem assays: 2079, 2058 ]; assay type: functional, cell-based
[3] = biological target: G-protein coupled receptor 55 (Homo sapiens, UniProt Q9Y2T6); test: GPR55 antagonists, SAR follow-up, counter-screen for GPR35 antagonist project, imaging, image-based (AID 2397); assay type: functional
Chain of G-protein coupled receptor 55 (Q9Y2T6 whole entry): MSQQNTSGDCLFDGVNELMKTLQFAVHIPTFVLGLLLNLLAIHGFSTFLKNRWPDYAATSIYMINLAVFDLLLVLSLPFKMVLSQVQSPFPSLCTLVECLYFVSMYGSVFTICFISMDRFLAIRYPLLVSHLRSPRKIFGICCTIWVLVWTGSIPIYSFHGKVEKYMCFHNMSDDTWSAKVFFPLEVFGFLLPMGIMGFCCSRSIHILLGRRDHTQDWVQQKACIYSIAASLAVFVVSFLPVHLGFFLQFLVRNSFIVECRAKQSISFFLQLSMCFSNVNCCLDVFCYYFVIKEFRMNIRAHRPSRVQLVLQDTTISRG

Phospholipase D2 = Phospholipase D2 (Homo sapiens, UniProt O14939); test: PLD2 inhibitor potency in cells, dose response (AID 602147); assay type: functional;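 note: cellular assay in HEK293 cells overexpressing GFP-tagged PLD2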
Chain of Phospholipase D2 (O14939 whole entry): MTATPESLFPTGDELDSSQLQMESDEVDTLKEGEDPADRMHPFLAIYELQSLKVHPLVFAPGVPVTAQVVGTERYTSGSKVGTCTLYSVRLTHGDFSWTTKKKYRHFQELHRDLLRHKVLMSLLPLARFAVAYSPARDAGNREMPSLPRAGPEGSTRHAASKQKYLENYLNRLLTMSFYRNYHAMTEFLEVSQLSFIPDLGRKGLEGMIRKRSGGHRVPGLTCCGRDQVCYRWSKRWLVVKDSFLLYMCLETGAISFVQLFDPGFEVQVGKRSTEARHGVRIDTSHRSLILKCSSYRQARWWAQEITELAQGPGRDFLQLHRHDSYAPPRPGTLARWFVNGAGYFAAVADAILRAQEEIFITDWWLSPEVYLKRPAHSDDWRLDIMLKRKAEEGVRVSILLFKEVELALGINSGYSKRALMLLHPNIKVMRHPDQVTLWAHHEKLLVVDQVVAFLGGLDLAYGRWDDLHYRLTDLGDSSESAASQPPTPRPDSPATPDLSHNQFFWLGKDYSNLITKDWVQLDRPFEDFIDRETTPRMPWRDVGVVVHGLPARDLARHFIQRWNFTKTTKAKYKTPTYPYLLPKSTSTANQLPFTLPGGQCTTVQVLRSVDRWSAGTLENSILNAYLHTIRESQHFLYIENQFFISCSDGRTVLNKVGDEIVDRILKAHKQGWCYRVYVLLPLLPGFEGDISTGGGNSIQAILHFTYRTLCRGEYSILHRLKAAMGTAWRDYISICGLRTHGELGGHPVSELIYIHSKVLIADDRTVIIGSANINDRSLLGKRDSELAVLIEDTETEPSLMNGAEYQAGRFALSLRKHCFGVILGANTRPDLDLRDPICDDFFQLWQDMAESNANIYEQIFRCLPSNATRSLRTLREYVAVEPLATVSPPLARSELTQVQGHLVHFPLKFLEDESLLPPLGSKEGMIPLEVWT

[4] = biological target: Dual specificity protein phosphatase 3 (Homo sapiens, UniProt P51452); test: SAR VHR1 Fluorescent Assay for In Vitro dose response studies Set 3. [Related pubchem assays (depositor defined):AID1654, AID1661, AID1878]; assay type: functional
Chain of Dual specificity protein phosphatase 3 (P51452 whole entry): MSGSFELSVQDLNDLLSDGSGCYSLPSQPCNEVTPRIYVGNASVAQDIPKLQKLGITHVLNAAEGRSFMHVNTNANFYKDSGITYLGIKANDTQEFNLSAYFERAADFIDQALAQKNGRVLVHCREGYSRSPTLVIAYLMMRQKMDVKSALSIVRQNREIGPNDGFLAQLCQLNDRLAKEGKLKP

[5] = biological target: Lysine-specific demethylase 4A (Homo sapiens, UniProt O75164); test: JMJD2A histone demethylase inhibitors, dose response, selectivity assay for GASC-1 inhibitor project, biochemical, DELFIA europium, cherry-picked samples (AID 488840)
Chain of Lysine-specific demethylase 4A (O75164 whole entry): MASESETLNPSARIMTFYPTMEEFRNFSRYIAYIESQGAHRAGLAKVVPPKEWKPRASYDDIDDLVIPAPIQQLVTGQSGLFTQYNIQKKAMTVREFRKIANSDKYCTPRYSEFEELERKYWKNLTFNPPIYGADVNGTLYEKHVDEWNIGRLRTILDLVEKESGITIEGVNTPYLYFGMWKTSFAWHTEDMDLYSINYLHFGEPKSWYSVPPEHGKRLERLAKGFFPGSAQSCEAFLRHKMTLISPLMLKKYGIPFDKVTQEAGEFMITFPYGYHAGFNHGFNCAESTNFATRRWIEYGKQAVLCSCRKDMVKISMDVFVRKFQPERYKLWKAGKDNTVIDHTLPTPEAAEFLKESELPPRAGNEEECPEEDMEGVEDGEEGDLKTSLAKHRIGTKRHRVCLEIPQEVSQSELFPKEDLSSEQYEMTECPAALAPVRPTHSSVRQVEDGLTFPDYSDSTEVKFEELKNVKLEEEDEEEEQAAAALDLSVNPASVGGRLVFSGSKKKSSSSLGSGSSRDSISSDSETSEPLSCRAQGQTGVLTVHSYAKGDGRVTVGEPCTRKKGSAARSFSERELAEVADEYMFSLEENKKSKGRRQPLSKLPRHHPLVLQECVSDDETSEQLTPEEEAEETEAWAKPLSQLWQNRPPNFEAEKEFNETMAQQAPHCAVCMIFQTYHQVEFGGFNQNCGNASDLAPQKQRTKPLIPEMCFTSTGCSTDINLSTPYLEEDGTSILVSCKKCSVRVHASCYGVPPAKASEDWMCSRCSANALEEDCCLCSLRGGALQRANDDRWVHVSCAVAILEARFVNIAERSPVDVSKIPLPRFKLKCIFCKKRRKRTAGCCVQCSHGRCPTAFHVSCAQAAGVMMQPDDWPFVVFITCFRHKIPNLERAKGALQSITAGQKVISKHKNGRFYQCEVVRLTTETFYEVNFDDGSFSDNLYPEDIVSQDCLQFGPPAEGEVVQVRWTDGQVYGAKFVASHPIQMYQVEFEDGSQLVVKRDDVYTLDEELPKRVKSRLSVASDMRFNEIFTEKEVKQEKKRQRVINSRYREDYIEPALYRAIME

BJ [6] = test: cytotoxicity toward BJ-TERT fibroblasts, dose response, cell-based, RAS-independent, luminescence (AID 1933); assay type: functional; settings: Homo sapiens
BJ [7] = test: cells; assay type: functional, cell-based; settings: Homo sapiens
BJ [8] = test: cytotoxicity toward BJ-TERT-LT-ST fibroblasts, dose response, cell-based, RAS-independent, luminescence (AID 1935); assay type: functional; settings: Homo sapiens;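 note: BJ fibroblasts immortalized with TERT plus LT and ST oncogenes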
[9] = cytotoxicity toward DRD oncogenic fibroblasts, dose response, cell-based, non-viral oncogenic, luminescence (AID 1934); assay type: functional; settings: Homo sapiens
Jurkat = test: antigen receptor-induced NF-kB inhibitors, dose response, Jurkat, luciferase reporter, luminescence, B- and T-cell (AID 489004); assay type: functional, cell-based; settings: Homo sapiens;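 note: NF-kB luciferase reporter Jurkat cells stimulated with PMA plus ionomycin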
[10] = cytotoxicity in HEK-293T NF-kB-Luc cells, dose response, cytotoxicity control for B/T-cell NF-kB inhibitor project, cell-based, uHTS hits (AID 489019); assay type: functional;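 note: IC50 reflects cytotoxicity as loss of cell viability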
[11] = biological target: T2, Microphthalmia-associated transcription factor (Homo sapiens, UniProt O75030); test: TRPM1 promoter luciferase signal decrease, dose response, MITF inhibitor project, cell-based, SK-MEL-5, cherry-picked, set 3 (AID 493073); assay type: functional
T2 sequence (O75030 whole entry): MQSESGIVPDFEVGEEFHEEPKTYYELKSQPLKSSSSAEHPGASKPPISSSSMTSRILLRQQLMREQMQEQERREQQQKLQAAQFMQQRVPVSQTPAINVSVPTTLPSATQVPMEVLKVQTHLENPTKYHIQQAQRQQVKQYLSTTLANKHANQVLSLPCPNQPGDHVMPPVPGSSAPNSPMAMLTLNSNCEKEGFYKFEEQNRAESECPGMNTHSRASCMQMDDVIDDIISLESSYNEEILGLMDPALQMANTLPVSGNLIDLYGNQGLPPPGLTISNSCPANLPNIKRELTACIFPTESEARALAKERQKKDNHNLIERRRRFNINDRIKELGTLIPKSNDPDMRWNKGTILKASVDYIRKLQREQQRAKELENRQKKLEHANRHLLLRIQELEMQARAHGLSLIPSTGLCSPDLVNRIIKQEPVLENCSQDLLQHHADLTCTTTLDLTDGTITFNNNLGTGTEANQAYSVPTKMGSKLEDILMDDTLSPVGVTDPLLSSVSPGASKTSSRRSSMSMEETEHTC

A-375 = test: A375 melanoma cell viability reduction, dose response, counter-screen for MITF modulator project, cherry-pick samples, set 2 (AID 540335); assay type: functional, cell-based; settings: Homo sapiens
Melanocortin receptor 4 = Melanocortin receptor 4 (Homo sapiens, UniProt P32245); test: MC4R antagonist potency on cAMP, dose response, cell-based, TR-FRET, biased antagonists (AID 602298); assay type: functional;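 note: antagonist potency against agonist-stimulated cAMP production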
Chain of Melanocortin receptor 4 (P32245 whole entry): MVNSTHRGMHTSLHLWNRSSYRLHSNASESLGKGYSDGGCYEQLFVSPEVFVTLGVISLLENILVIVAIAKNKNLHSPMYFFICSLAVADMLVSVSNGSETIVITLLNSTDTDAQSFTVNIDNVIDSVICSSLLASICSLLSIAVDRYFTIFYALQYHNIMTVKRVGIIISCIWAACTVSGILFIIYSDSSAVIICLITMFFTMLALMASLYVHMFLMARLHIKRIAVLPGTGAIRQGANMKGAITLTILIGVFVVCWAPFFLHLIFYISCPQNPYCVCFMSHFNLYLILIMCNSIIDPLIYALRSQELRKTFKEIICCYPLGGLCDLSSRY

[12] = Shn3 3'UTR reporter inhibitors, dose response, cell-based, Clone20 osteoblasts, firefly luciferase, cherry-picked (AID 624132); assay type: functional;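 note: firefly luciferase luminescence from reporter carrying the Shn3 3'UTR in osteoblasts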
[13] = HepG2 cell cytotoxicity, dose response, cytotoxicity control for Shn3 inhibitor project, CellTiter-Glo, cherry-picked (AID 624134); assay type: functional, cell-based
[14] = control 3'UTR Renilla luciferase suppression, dose response, counter-screen for Shn3 inhibitor project, cell-based, Clone20-Shn3RL, cherry-picked (AID 624133); assay type: functional
[15] = nonselective inhibitors of cellular cAMP signaling, dose response, counter-screen for MC4R biased antagonist project, cell-based, TR-FRET cAMP detection (AID 602305); assay type: functional;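 note: U2OS cells stimulated with forskolin near its EC80 as the cAMP inducer; potency is for inhibition of forskolin-stimulated cAMP signaling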
[16] = miR-122 activators in hepatoma reporter cells, dose response, cell-based, Huh7 psiCHECK-miR122, Renilla luciferase, cherry-picked (AID 651956); assay type: functional;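 note: huh7 hepatoma cells stably carrying a psiCHECK-2 miR-122 sensor plasmid; renilla luciferase signal reporting endogenous miR-122 activity after 48 h compound exposure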
[17] = inhibitors of PGC1a acetylation in cells, dose response, cell-based, cherry-picked samples (AID 720514); assay type: functional;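 note: potency may reflect raised or lowered acetylation signal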
[18] = HEK293T cytotoxicity, dose response, cytotoxicity control for miR-122 modulator project, cell-based, inhibitor set, cherry-pick, set 2 (AID 720697); assay type: functional
[19] = HEK293T cytotoxicity, dose response, cytotoxicity control for miR-122 modulator project, cell-based, activator set, cherry-pick (AID 720690); assay type: functional;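 note: HEK293T human cells scored for general mammalian cytotoxicity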

T1 sequence (Q9HC97 whole entry): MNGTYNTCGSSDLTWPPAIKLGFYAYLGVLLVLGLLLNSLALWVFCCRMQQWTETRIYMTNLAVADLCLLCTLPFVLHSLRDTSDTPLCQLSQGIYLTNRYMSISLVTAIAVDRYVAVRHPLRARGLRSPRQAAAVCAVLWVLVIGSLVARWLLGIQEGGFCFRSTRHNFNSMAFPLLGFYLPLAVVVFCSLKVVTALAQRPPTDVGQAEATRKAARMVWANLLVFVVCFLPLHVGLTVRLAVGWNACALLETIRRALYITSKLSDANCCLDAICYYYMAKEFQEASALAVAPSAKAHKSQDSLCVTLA

## CC(C)c1ccc(NC(=O)CSc2nc3ccsc3c(=O)n2Cc2ccc(C(=O)O)cc2)cc1
[1]
  IC50: 0.561 µM (active)
[2]
  IC50: 5.68 µM (active)
[3]
  IC50: 11.7 µM (inactive)

## Cc1cccc(C(=O)N[C@@H](C)CN2CCC3(CC2)C(=O)NCN3c2ccccc2)c1
Phospholipase D2
  IC50: 20 µM (active)

## Cc1cc(NC(=O)c2ccccc2Cl)ccc1NC(=O)CSc1nnc(-c2cccs2)n1C
[4]
  IC50: 25.3 µM (active)

## CCOC(=O)CCCCCC(=O)Nc1ccc2c(c1)CC(=O)N([C@@H](C)CO)C[C@H](C)[C@@H](CN(C)C(=O)Nc1ccc3c(c1)OCO3)O2
[5]
  AC50: > 60 µM (inactive)

## C#CC(=O)N(c1ccc(OC)c(OC)c1)C(C(=O)NC1CCCC1)c1cccs1 (stereo not drawn)
BJ [6]
  EC50: 0.171 µM (inconclusive)
BJ [7]
  EC50: 5.23 µM (inconclusive)
BJ [8]
  EC50: 7.04 µM (active)
[9]
  EC50: 3.54 µM (active)
Jurkat
  IC50: 0.26 µM (active)
[10]
  IC50: 73 µM (inactive)
[11]
  AC50: 3.31 µM (active)
A-375
  AC50: 5.92 µM (active)
Melanocortin receptor 4
  IC50: 2.51 µM (active)
[12]
  AC50: 3.32 µM (active)
[13]
  AC50: 2.4 µM (active)
[14]
  AC50: 14.3 µM (active)
[15]
  IC50: > 64.6 µM (inactive)
[16]
  AC50: 0.651 µM (active)
[17]
  AC50: 3.18 µM (active)
[18]
  AC50: < 0.195 µM (active)
[19]
  AC50: < 0.195 µM (active)
